Square brackets hold non-standard residues; d marks the D form. Ends that are not written are not given here.
What was measured:
[1] = test system: anti-dynorphin B murine monoclonal antibody; experiment: 4×10 peptide array related to dynorphin B screened with anti-dynorphin B antibody and labeled goat anti-mouse antibody; format: binding; details: FIG. 30
Text: An array of peptides synthesized using the general protection-deprotection technology outlined above. Referring to FIG. 30, the following peptides were synthesized: row 1=RXFKVVT; row 2=RQXFKVVT; row 3=RQXKVVT; and row 4=RXKVVT. In each row, “X” represents a group of four amino acids, which were simultaneously added to the immobilized peptide. The particular group of amino acids used as “X” on a given block are identified by column number as follows: column 1 [G,A,R,K in a ratio 1:1:1:1], column 2 [null]; column 3 [C,M,S,T in the ratio 1:1:1:5]; column 4 [null]; column 5 [F,Y,W,H in the ratio 1:1:1:1]; column 6 [null]; column 7 [D,E,N,Q in the ratio 1:1:1:1]; column 8 [null]; column 9 [V,L,I,P in the ratio 2:1:4:1]; and column 10 [null].
After these peptides were synthesized, they were screened with an anti-dynorphin B murine monoclonal antibody and then exposed to a fluorescently labeled goat anti-mouse antibody. […] Other strongly labeled regions, include column 7, row 1 and column 5, row 3, each of which contains some peptides having the above binding epitope. It should be noted that the varying ratios of some of the amino acids within a given group were necessary to obtain roughly equal binding efficiencies among the four amino acids.

[2] = test system: anti-dynorphin B monoclonal antibody; experiment: Dynorphin B deletion peptide array, relative binding of anti-dynorphin B monoclonal antibody by fluorescence intensity
Method: The binding epitope on dynorphin B for the anti-dynorphin B antibody described above was determined by deleting various amino acids and combinations of amino acids from the overall sequence of dynorphin B. The peptides containing these various deletions were prepared on a substrate by the general protection-deprotection methods described above. Then the substrate was exposed to the anti-dynorphin B monoclonal antibody and a fluorescence image was produced as shown in FIG. 33.
From the intensity distribution contained in this plot, it was possible to determine the relative binding affinity to various of the peptides.

[3] = test system: Herz antibody; experiment: Array of sixteen amino acid sequences, relative binding to Herz antibody by fluorescence; design: species or system mouse; details: FIG. 17
Text: Using techniques similar to those set forth above, an array of 16 different amino acid sequences (replicated four times) was synthesized on each of two glass substrates. The sequences were synthesized by attaching the sequence NVOC-GFL across the entire surface of the slides. Using a series of masks, two layers of amino acids were then selectively applied to the substrate. Each region had dimensions of 0.25 cm×0.0625 cm. The first slide contained amino acid sequences containing only L amino acids while the second slide contained selected D amino acids. FIGS. 15A and 15B illustrate a map of the various regions on the first and second slides, respectively. The patterns shown in FIGS. 15A and 15B were duplicated four times on each slide. The slides were then exposed to the Herz antibody and fluorescein-labeled goat anti-mouse.
FIG. 16 is a fluorescence plot of the first slide, which contained only L amino acids. Light shading indicates strong binding (149,000 counts or more) while black indicates little or no binding of the Herz antibody (20,000 counts or less). The bottom right-hand portion of the slide appears “cut off” because the slide was broken during processing. […]
FIG. 17 is a fluorescence plot of the second slide. […]
Table 2 lists the various sequences tested in order of relative fluorescence, which provides information regarding relative binding affinity. […]

In the case of RQFKVVT, the “fluorescence labeling of array region” value [1] is reported as “brightest region”, the “RELATIVE INTENSITY” value ([2]; mean ± spread over N synthesis sites) is reported as 93.6 ± 10.0 and the “RELATIVE INTENSITY, value in parentheses (ADJUSTED)” value ([2]; second value in parentheses) is reported as “(96.2 ± 7.1)”.
In the case of “YpGFL: SEQ ID NO:24; lower case letters represent D-amino acids (Y[dP]GFL)”, the “binding of Herz antibody, second slide (selected D amino acids)” value [3] is reported as “Significant binding”.

Reference: patent US20050079529A1, “Very large scale immobilized polymer synthesis” (Affymetrix, INC., priority 1989, published 2005)
